Assay [1] has as its target human EGFR (native sequence) (Homo sapiens, UniProt P00533). Briefly: Kinase inhibition, human EGFR (native sequence). It counts as biochemical. As to conditions: 10 μM ATP; 10 pt curves, 3 μM top concentration (singlicates). As to the method: (§1) Kinase inhibitory activity of the compounds was measured against human EGFR (native sequence) and against EGFR bearing the L858R mution and the L858R/T790M double mutation (EGFR, L858R, and L858R/T790M, respectively in Table 1). Additional assays can be conducted with EGFR deletion mutants such as delE746-A750 with or without the additional T790M mutation. Assay conditions included 10 pt curves with 3 μM top concentration (singlicates) and 10 μM ATP.

The subject of the next assay is BAF3 PARENTAL
The experiment in a line: Cell proliferation (MTT), BAF3 parental. The format is cell-based. As to conditions: Mus musculus. The protocol: (§2) We also assessed the antiproliferative activity of compounds of Formula (I) against BaF3 cells expressing the target EGFR mutations or control (i.e., cell lines expressing wildtype EGFR). Assays were conducted using MTT.

The test system of assay [2] is BAF3 EGFR L858R-T790M PURO POOL. Briefly: Cell proliferation (MTT), BAF3 EGFR L858R-T790M. As to conditions: Ba/F3 EGFR. It counts as cell-based. The protocol: as §2
Assay [3] addresses BAF3 EGFR DEL T790M PURO POOL (Homo sapiens, UniProt P00533, DEL746-750/T790M, cells depend on it). Briefly: Cell proliferation (MTT), BAF3 EGFR DEL T790M. The format is cell-based. As to the method:
as §2

Assay [4] concerns the target EGFR bearing the L858R mution (Homo sapiens, UniProt P00533, L858R). The experiment in a line: Kinase inhibition, EGFR L858R. The format is biochemical. As to conditions: 10 μM ATP; 10 pt curves, 3 μM top concentration (singlicates). As to the method:
as §1

Assay [5] has as its target EGFR bearing the L858R/T790M double mutation (Homo sapiens, UniProt P00533, L858R/T790M). Briefly: Kinase inhibition, EGFR L858R/T790M. The format is biochemical. The following applies: 10 μM ATP; 10 pt curves, 3 μM top concentration (singlicates). The protocol:
as §1

Chain of EGFR bearing the L858R/T790M double mutation (P00533 25-1210 T790M/L858R): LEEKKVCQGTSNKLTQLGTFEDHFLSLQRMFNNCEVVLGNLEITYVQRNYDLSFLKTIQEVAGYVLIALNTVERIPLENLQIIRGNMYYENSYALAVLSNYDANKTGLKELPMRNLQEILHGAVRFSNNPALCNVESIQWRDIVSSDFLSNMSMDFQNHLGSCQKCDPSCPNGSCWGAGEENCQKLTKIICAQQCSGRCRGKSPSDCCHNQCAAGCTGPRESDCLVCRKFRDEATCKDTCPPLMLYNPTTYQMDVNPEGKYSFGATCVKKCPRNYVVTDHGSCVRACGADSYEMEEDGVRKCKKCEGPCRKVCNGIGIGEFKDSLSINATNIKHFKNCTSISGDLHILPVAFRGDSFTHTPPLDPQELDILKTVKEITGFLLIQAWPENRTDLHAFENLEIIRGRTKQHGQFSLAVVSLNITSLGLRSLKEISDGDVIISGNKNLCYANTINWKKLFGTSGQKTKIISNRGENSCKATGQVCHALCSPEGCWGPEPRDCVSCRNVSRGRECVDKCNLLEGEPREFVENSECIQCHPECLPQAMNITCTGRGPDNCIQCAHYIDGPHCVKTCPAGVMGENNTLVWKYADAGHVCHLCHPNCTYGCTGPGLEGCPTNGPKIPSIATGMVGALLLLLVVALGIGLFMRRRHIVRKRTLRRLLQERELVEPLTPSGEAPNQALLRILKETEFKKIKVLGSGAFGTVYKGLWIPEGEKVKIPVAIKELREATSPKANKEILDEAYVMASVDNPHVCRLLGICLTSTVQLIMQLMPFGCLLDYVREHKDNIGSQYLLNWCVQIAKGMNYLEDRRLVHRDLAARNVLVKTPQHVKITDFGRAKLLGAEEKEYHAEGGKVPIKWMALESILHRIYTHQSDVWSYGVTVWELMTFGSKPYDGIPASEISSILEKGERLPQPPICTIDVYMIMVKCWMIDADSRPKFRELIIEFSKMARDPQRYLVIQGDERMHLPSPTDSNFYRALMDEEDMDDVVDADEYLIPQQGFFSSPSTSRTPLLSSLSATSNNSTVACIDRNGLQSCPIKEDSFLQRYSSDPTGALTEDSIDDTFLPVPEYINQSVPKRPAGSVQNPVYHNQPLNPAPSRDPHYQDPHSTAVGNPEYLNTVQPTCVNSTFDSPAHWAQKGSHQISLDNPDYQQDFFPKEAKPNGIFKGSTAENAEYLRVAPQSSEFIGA
Chain of BAF3 EGFR DEL T790M PURO POOL (P00533 with tags, fused parts or gaps DEL746-750/T790M): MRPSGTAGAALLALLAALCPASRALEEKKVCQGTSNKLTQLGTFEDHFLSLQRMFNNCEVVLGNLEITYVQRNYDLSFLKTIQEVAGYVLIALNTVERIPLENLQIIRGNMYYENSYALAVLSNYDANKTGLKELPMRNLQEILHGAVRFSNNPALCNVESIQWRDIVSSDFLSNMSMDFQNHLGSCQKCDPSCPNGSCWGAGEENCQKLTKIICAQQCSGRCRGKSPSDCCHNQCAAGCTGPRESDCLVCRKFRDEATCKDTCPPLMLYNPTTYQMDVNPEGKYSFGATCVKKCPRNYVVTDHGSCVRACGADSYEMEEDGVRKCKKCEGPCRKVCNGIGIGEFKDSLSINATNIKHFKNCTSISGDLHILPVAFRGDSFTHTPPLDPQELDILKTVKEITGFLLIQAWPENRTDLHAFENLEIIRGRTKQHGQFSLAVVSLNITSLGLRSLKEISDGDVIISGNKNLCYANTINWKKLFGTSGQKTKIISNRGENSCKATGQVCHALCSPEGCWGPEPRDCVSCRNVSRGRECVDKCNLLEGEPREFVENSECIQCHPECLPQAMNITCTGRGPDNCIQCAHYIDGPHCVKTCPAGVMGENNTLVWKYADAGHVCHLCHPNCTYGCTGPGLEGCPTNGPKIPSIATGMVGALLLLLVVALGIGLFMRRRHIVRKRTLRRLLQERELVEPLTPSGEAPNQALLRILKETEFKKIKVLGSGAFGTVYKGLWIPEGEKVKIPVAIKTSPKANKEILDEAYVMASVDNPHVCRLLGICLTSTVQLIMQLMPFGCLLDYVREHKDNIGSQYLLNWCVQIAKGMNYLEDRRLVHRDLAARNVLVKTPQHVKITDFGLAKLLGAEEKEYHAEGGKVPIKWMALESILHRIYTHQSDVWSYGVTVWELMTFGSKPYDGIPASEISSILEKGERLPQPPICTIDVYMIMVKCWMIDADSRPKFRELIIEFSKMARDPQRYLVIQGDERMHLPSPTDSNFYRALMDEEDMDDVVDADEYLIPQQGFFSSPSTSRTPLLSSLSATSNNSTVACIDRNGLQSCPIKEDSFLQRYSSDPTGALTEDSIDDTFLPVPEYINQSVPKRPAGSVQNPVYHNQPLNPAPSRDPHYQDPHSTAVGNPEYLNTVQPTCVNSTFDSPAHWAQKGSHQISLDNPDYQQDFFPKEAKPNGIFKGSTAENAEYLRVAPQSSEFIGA
Chain of EGFR bearing the L858R mution (P00533 25-1210 L858R): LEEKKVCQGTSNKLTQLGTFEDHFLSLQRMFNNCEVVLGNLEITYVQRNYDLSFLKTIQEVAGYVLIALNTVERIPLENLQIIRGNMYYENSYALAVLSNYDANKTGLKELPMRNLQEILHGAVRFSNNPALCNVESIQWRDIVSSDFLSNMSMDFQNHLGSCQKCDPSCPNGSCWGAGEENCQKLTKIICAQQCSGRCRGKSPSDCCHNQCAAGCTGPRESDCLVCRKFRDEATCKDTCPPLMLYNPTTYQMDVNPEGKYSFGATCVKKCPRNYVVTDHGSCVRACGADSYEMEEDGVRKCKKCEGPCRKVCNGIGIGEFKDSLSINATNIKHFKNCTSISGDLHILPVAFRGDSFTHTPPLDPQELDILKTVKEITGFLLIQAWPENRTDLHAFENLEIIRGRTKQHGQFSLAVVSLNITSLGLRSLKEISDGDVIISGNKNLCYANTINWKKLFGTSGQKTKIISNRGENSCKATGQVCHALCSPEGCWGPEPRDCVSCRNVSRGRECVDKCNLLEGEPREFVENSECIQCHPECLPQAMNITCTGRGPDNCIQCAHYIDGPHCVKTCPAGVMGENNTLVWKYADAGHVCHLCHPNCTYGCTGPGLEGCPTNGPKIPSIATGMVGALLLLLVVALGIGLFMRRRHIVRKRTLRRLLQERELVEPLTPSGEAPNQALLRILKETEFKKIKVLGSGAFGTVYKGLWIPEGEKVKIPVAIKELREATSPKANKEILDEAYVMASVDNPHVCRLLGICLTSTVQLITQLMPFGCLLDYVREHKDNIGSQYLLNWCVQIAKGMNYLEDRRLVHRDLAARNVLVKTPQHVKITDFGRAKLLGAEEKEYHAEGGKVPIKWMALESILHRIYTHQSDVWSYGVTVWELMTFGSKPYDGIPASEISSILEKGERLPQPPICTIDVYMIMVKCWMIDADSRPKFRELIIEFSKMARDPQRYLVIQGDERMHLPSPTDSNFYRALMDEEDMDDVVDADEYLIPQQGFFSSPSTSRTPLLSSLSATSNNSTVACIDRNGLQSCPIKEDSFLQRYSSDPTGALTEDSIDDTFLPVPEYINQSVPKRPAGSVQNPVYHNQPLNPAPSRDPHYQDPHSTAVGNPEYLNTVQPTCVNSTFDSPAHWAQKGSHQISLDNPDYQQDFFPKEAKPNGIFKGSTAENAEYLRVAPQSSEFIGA
Chain of human EGFR (native sequence) (P00533 25-1210): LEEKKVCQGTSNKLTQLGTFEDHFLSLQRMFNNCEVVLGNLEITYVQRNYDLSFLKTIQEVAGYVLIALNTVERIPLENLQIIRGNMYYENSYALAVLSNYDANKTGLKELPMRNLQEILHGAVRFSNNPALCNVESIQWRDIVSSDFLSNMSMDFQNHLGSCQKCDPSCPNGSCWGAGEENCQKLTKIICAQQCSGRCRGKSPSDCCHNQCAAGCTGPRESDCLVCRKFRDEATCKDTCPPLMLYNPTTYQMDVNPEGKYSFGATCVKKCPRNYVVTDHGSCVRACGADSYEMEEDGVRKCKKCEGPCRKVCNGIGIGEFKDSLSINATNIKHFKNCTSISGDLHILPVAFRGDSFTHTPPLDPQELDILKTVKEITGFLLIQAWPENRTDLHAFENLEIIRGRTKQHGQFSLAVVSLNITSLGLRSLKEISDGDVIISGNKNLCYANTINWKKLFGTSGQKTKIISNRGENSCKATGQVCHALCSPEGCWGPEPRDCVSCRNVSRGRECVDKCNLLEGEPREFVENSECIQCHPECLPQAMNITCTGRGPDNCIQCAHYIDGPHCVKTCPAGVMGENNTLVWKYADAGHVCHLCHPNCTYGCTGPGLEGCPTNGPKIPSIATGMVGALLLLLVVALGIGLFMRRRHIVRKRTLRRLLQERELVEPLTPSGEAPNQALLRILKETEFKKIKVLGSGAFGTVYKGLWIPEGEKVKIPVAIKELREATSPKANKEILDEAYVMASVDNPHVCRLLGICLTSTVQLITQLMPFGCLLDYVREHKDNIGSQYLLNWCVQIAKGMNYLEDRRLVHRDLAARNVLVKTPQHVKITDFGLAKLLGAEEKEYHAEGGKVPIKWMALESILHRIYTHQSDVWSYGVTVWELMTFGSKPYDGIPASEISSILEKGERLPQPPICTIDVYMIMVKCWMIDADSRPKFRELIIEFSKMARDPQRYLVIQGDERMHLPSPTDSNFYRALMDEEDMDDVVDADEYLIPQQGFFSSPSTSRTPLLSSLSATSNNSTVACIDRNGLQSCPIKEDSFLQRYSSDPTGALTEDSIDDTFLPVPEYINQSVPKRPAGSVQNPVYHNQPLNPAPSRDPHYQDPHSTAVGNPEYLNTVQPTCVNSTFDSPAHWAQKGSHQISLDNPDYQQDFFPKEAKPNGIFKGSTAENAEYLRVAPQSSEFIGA

In the case of `C=C(C)C(=O)Nc1ccc(OC)c(Nc2ncc(Cl)c(Nc3ccccc3P(C)(C)=O)n2)c1` [Example 5c, N-(3-((5-chloro-4-((2-(dimethylphosphoryl)phenyl)amino)pyrimidin-2-yl)amino)-4-methoxyphenyl)methacrylamide], the IC50 is at least 250 nM in assay [1]; at least 250 nM in the assay on BAF3 PARENTAL; at least 250 nM in assay [2]; 101 to 250 nM in assay [3]; at least 250 nM in assay [4]; at least 250 nM in assay [5].

As to `C=CC(=O)Nc1cc(Nc2ncc(Cl)c(Nc3ccccc3P(C)(C)=O)n2)c(OC)cc1N(C)CCN(CC)CC` [Example 33, N-(5-((5-chloro-4-((2-(dimethylphosphoryl)phenyl)amino)pyrimidin-2-yl)amino)-2-((2-(diethylamino)ethyl)(methyl)amino)-4-methoxyphenyl)acrylamide], the IC50 in assay [1] is below 51 nM; in the assay with BAF3 PARENTAL, at least 250 nM; in assay [2], below 51 nM; in assay [3], below 51 nM; in assay [4], below 51 nM; in assay [5] it was below 51 nM.

On to `COc1cc(F)c(NC(=O)/C=C/CN(C)C)cc1Nc1ncc(Cl)c(Nc2ccccc2P(C)(C)=O)n1` [Example 56, (E)-N-(5-((5-chloro-4-((2-(dimethylphosphoryl)phenyl)amino)pyrimidin-2-yl)amino)-2-fluoro-4-methoxyphenyl)-4-(dimethylamino)but-2-enamide], for which the IC50 in assay [1] was 101 to 250 nM; in the assay with BAF3 PARENTAL, at least 250 nM; in assay [2] it was below 51 nM; in assay [3], below 51 nM; in assay [4] it was below 51 nM; in assay [5] it was below 51 nM.

For `C=C(CN(C)C)C(=O)Nc1ccc(OC)c(Nc2ncc(Cl)c(Nc3ccccc3P(C)(C)=O)n2)c1` [Example 17, N-(3-((5-chloro-4-((2-(dimethylphosphoryl)phenyl)amino)pyrimidin-2-yl)amino)-4-methoxyphenyl)-2-((dimethylamino)methyl)acrylamide], the IC50 is below 51 nM in assay [1]; at least 250 nM with BAF3 PARENTAL; below 51 nM in assay [2]; below 51 nM in assay [3]; below 51 nM in assay [4]; below 51 nM in assay [5].

For `C=C(CN(C(C)C)C(C)C)C(=O)Nc1ccc(OC)c(Nc2ncc(Cl)c(Nc3ccccc3P(C)(C)=O)n2)c1` [Example 35, N-(3-((5-chloro-4-((2-(dimethylphosphoryl)phenyl)amino)pyrimidin-2-yl)amino)-4-methoxyphenyl)-2-((diisopropylamino)methyl)acrylamide], the IC50 in assay [1] was below 51 nM; in the assay with BAF3 PARENTAL, at least 250 nM; in assay [2] it was below 51 nM; in assay [3], below 51 nM; in assay [4] it was below 51 nM; in assay [5], below 51 nM.

Turning to `COCCOc1cc(OC)c(Nc2ncc(Cl)c(Nc3ccccc3P(C)(C)=O)n2)cc1NC(=O)/C=C/CN(C)C` [Example 57, (E)-N-(5-((5-chloro-4-((2-(dimethylphosphoryl)phenyl)amino)pyrimidin-2-yl)amino)-4-methoxy-2-(2-methoxyethoxy)phenyl)-4-(dimethylamino)but-2-enamide], the IC50 was at least 250 nM in assay [1]; at least 250 nM in the assay on BAF3 PARENTAL; at least 250 nM in assay [2]; at least 250 nM in assay [3]; below 51 nM in assay [4]; below 51 nM in assay [5].

Take `COc1cc(N2CCOCC2)c(NC(=O)C2CO2)cc1Nc1ncc(Cl)c(Nc2ccccc2P(C)(C)=O)n1` (stereo not drawn) [Example 59, N-(5-((5-chloro-4-((2-(dimethylphosphoryl)phenyl)amino)pyrimidin-2-yl)amino)-4-methoxy-2-morpholinophenyl)oxirane-2-carboxamide]: the IC50 in assay [1] was below 51 nM; with BAF3 PARENTAL, at least 250 nM; in assay [2], 101 to 250 nM; in assay [3] it was below 51 nM; in assay [4], below 51 nM; in assay [5], below 51 nM.

In general, IC50 refers to the point on the concentration scale where inhibition reaches its midpoint.

These data come from US9834518B2, “Compounds for inhibiting cell proliferation in EGFR-driven cancers” (ARIAD Pharmaceuticals, Inc., priority 2011, dated 2017).
